Patent publication US20120329731A1 (priority 2006, published 2012)
Where two headings read alike, the source gives them in different places.

Assays:
[1] = tested on: cyanide poisoning; design: species or system mice; details: mouse, in vivo
[2] = tested on: righting reflex; details: mouse, in vivo, ip

Compound	% S (percent survivors) [1] [%]	P.I. (protective index) [1]	Screen Righting time (Ave ± SE) [1] [min]	% S (percent survivors) ([1]; po) [%]	Screen Righting time (Ave ± SE) [2] [s]	P.I. (protective index: recovery time CN-treated / recovery time PD-treated) [1]	Protective Indices compared with the combination of nitrite and thiosulfate ([1]; ip)	antidotal activity when administered by the oral route ([1]; po)
O.O.O.O.O=C(O)C1(O)CSC(O)(C(=O)O)CS1.[Na].[Na] (stereo not shown) [13 (X = Na), Disodium 2,5-dihydroxy-1,4-dithiane-2,5-dicarboxylic acid tetrahydrate]	100	4.0	17.0 ± 3.3	100	14.0 ± 2.3			
CCOC(=O)C1(O)CSC(O)(C(=O)OCC)CS1 (stereo not shown) [PD 2, 2,5-Dihydroxy-2,5-dicarbethoxy-1,4-dithiane]	100			100	21.2 ± 1.2	7.6	generally superior	retain their antidotal activity
C/C1=C2/[N-][C@H]([C@H](CC(N)=O)[C@@]2(C)CCC(=O)NC[C@@H](C)OP(=O)([O-])O[C@H]2[C@@H](O)[C@@H](n3cnc4cc(C)c(C)cc43)O[C@@H]2CO)[C@]2(C)N=C(/C(C)=C3N=C(/C=C4N=C1[C@@H](CCC(N)=O)C\4(C)C)[C@@H](CCC(N)=O)[C@]\3(C)CC(N)=O)[C@@H](CCC(N)=O)[C@]2(C)CC(N)=O.[Co+3].[OH-] [H, Hydroxocobalamin, reference compound]	100				7.1 ± 0.6	5.2		
N[C@@H](CCC(=O)N[C@@H](CSSC[C@H](N)C(=O)O)C(=O)NCC(=O)O)C(=O)O [CySSG, reference compound]	100	2.5	27.7 ± 2.7	100	8.8 ± 2.2			
